Assay results published in patent US7759373B2, “Large conductance calcium-activated K channel opener” (Mitsubishi Tanabe Pharma Corporation, priority 2001, dated 2010).

These molecules were tested on rhythmic bladder contractions induced by substance P (assay: Inhibitory effect on the rhythmic bladder contractions induced by substance P in anesthetized rats). Details: time during which frequency of rhythmic contraction was completely inhibited, 0.25 mg/kg of the compound, substance P infusion.
Format: in vivo, rat
Procedure: Inhibitory effect on the rhythmic bladder contractions induced by substance P in anesthetized rats
For the experiments, Sprague-Dawley female rats (9 to 12 weeks old) weighing between 200 to 300 g were used. After urethane anesthetization (subcutaneously administered with a dose of 1.2 g/kg), cannulae were placed in both right and left femoral veins. One intravenous catheter was used for administration of compounds, and the other was for the substance P (0.33 μg/kg/min) infusion. We also cannulated into ureter to pass urine. Polyethylene catheters were inserted into carotid artery for continuous monitoring of arterial blood pressure and heart rate. For continuous infusion, transurethral bladder catheter was inserted into the bladder through the urethra and tied in place by a ligature around the urethral orifice. One end of the catheter was attached to a pressure transducer in order to measure intravesical pressure. The other end of the catheter was used for infusion of saline into the bladder. After stabilization of blood pressure and heart rate and after the bladder was emptied, cystometry was performed by filling the bladder slowly with about 0.6 ml of saline. After about 10 minutes, intravenous infusion of substance P (0.33 μg/kg/min) was started for stabilization of the micturition reflex. Compounds were administered after stable rhythmic bladder contraction was obtained over 15 minutes. All compounds were dissolved or suspended in saline containing 0.5% Tween 80 for intravenous administration (0.1 ml/kg).
A 100% inhibition time (minute) of the selected compounds of the present invention is shown in the following Table 65 with a rank of A, B or C. These ranges are as mentioned below. A≧20>B≧10>C (minute)

Molecule	100% inhibition time range
2-(4-fluorophenyl)-5-(2-thienyl)oxazole-4-yl propionic acid sodium salt [Preparation Example 338]	C (A≧20>B≧10>C (minute))
O=C(O)Cc1nc(-c2ccc(F)cc2)oc1-c1ccccc1 [Preparation Example 153]	B (A≧20>B≧10>C (minute))
Cc1ccc(-c2nc(CC(=O)O)c(-c3cccs3)o2)cc1 [Preparation Example 156]	B (A≧20>B≧10>C (minute))
COc1ccc(-c2oc(-c3ccc(F)cc3)nc2CC(=O)O)cc1OC [Preparation Example 160]	C (A≧20>B≧10>C (minute))
O=C(O)Cc1nc(-c2ccc(F)cc2)oc1-c1ccccc1F [Preparation Example 162]	C (A≧20>B≧10>C (minute))
Cc1csc(-c2oc(-c3ccc(F)cc3)nc2CC(=O)O)c1 [Preparation Example 164]	B (A≧20>B≧10>C (minute))
O=C(O)Cc1nc(-c2ccc(F)cc2)oc1-c1ccc(F)c(F)c1 [Preparation Example 166]	B (A≧20>B≧10>C (minute))
OCc1nc(-c2ccc(Cl)cc2)[nH]c1-c1ccccc1 [Preparation Example 176]	C (A≧20>B≧10>C (minute))
Cc1ccc(-c2nc(CC(=O)O)c(-c3ccsc3)o2)cc1 [Preparation Example 198]	C (A≧20>B≧10>C (minute))
O=C(O)Cc1nc(-c2ccc(Cl)cc2)oc1-c1ccco1 [Preparation Example 201]	C (A≧20>B≧10>C (minute))
Cc1cc(-c2oc(-c3ccc(F)cc3)nc2CC(=O)O)sc1CO [Preparation Example 233]	C (A≧20>B≧10>C (minute))
CC(O)c1ccc(-c2oc(-c3ccc(F)cc3)nc2CC(=O)O)s1 (centres unmarked) [Preparation Example 234]	C (A≧20>B≧10>C (minute))
O=C(O)Cc1nc(-c2ccc(F)cc2)oc1-c1cccc(F)c1 [Preparation Example 236]	C (A≧20>B≧10>C (minute))
O=C(O)Cc1nc(-c2ccc(F)cc2)oc1-c1ccccc1O [Preparation Example 237]	C (A≧20>B≧10>C (minute))
CS(=O)(=O)Nc1ccccc1-c1oc(-c2ccc(F)cc2)nc1CC(=O)O [Preparation Example 238]	C (A≧20>B≧10>C (minute))
O=C(O)Cc1nc(-c2ccc(F)cc2)oc1-c1ccc2ncccc2c1 [Preparation Example 239]	C (A≧20>B≧10>C (minute))
O=C(O)Cc1nc(-c2ccc(F)cc2)oc1-c1cccc(Cl)c1 [Preparation Example 241]	C (A≧20>B≧10>C (minute))
O=C(O)Cc1nc(-c2ccc(F)cc2)oc1-c1cc(Cl)ccc1O [Preparation Example 242]	C (A≧20>B≧10>C (minute))
COc1ccc(-c2oc(-c3ccc(F)cc3)nc2CC(=O)O)cc1F [Preparation Example 250]	B (A≧20>B≧10>C (minute))
CCOc1c(F)cc(-c2oc(-c3ccc(F)cc3)nc2CC(=O)O)cc1OC [Preparation Example 251]	C (A≧20>B≧10>C (minute))
O=C(O)Cc1nc(-c2ccc(F)cc2)oc1-c1cc2ccccc2o1 [Preparation Example 254]	C (A≧20>B≧10>C (minute))
O=C(O)Cc1nc(-c2ccc(F)cc2)oc1-c1cccc(O)c1 [Preparation Example 258]	C (A≧20>B≧10>C (minute))
CN(C)c1ccc(-c2nc(CC(=O)O)c(-c3cccs3)o2)cn1 [Preparation Example 259]	B (A≧20>B≧10>C (minute))
CN(C)c1ccc(-c2nc(CC(=O)O)c(-c3ccc(Cl)s3)o2)cn1 [Preparation Example 260]	A (A≧20>B≧10>C (minute))
COc1cccc(-c2nc(CC(=O)O)c(-c3cccs3)o2)c1 [Preparation Example 263]	C (A≧20>B≧10>C (minute))
O=C(O)Cc1nc(-c2ccc(F)cc2)oc1-c1ccco1 [Preparation Example 270]	B (A≧20>B≧10>C (minute))
